Like-named read-outs stand apart in the source and are kept apart here.
Columns and labels:
[1] = cited from earlier work
osteoarthritis = assay: Example B: case treatment of osteoarthritis, complete-body immersion; assay type: in vivo, human; details: earlier treatment tried by the patient; patient report
Excerpt: (§1) Given below are examples of using the medicinal drug of type I/II for treating allergic rhinitis, osteoarthritis, gouty arthritis, bronchitis, hemorrhoids, urticaria, toothache, tinea pedis, acute viral nasopharyngitis, herpes simplex, dandruff, itching, bromhidrosis, and vaginitis. The formulation of the drug of type I/II used in these examples was the preferred formulation, mentioned above, in which the drug was formed with potassium hydrogen peroxymonosulfate as the active oxygen-releasing material, sodium chloride as the inorganic halide, sodium hexametaphosphate as the alkali metal phosphate, sulfamic acid, malic acid as the non-reducing organic acid, and sodium dodecylbenzene sulfonate as the surfactant at approximately the typical mass percentages mentioned above. A formulation approximating this formulation is commercially available in the product Virkon. This formulation of the drug of type I/II is referred to below as the “Medicine”. […]

dandruff = assay: Example K: case treatment of dandruff, scalp scrubbing; assay type: in vivo, human; details: earlier treatment tried by the patient; (some of) these decreased the amount of dandruff; patient report
Excerpt: Given below are examples of using the medicinal drug of type I/II for treating allergic rhinitis, osteoarthritis, gouty arthritis, bronchitis, hemorrhoids, urticaria, toothache, tinea pedis, acute viral nasopharyngitis, herpes simplex, dandruff, itching, bromhidrosis, and vaginitis. […] A formulation approximating this formulation is commercially available in the product Virkon. This formulation of the drug of type I/II is referred to below as the “Medicine”.
The Medicine for each person infected with allergic rhinitis, osteoarthritis, gouty arthritis, bronchitis, hemorrhoids, urticaria, toothache, tinea pedis, acute viral nasopharyngitis, herpes simplex, dandruff, itching, bromhidrosis, and vaginitis is provided for topical, intranasal, oral, or/and injection administration 1-12 times per day, preferably 1-8 times per day, more preferably 1-6 times per day, typically 1-4 times per day, in liquid form at a dosage of 0.00001-5%, preferably 0.001-3%, more preferably 0.1-2%, typically 0.5-1%, for a time of contact of 1 minute-12 hours, preferably 1 minute-6 hours, more preferably 1 minute-2 hours, typically 1-30 minutes.
The Medicine was provided to […] as a 1% solution for topical administration by scrubbing the Medicine into their scalp and hair for 5 minutes and then washing their scalp and hair. The […] reported that they administered the Medicine to themself in the foregoing manner 4 times a week for 2 weeks.

poliovirus = details: Sporkenbach, U.S. Pat. No. 4,404,191; cited from earlier work
coxsackie virus = details: Sporkenbach, U.S. Pat. No. 4,404,191; cited from earlier work
[2] = tested on: simian vacuolating virus 40; details: Sporkenbach, U.S. Pat. No. 4,404,191; cited from earlier work
adenovirus = details: Sporkenbach, U.S. Pat. No. 4,404,191; cited from earlier work
vaginitis = assay: Example N: case treatment of vaginitis, vaginal immersion; assay type: in vivo, human; details: earlier treatment tried by the patient; patient report
Excerpt: as §1

potassium monopersulfate triple salt
loss of active oxygen content per month ([1]; anhydrous solid, reported in Tufano): roughly 1% | loss of active oxygen content per month ([1]; solutions (solvent presumably high-purity water), Tufano and Durante): 3-5%

N[C@H]1C(O)O[C@H](CO)[C@@H](O)[C@@H]1O (some centres unmarked) [glucosamine]
relief of osteoarthritis by earlier treatments (osteoarthritis): without effective relief

S=[Se]=S [selenium sulfide]
dandruff after earlier treatments (dandruff): still visible

CC(=O)N1CCN(c2ccc(OCC3COC(Cn4ccnc4)(c4ccc(Cl)cc4Cl)O3)cc2)CC1 (centres unmarked) [ketoconazole]
dandruff after earlier treatments (dandruff): still visible

zinc pyrithione
dandruff after earlier treatments (dandruff): still visible

O=S(=O)([O-])OO.[K+] [potassium hydrogen peroxymonosulfate]
inactivation of poliovirus (poliovirus): inactivated | inactivation of coxsackie virus (coxsackie virus): inactivated | inactivation of simian vacuolating virus 40 [2]: inactivated | inactivation of adenovirus (adenovirus): inactivated

C[C@]12CCC(=O)C=C1CC[C@@H]1[C@@H]2[C@@H](O)C[C@@]2(C)[C@H]1CC[C@]2(O)C(=O)CO [hydrocortisone]
success of earlier treatments for vaginitis (vaginitis): without significant success

Reference: patent publication US20120074014A1, “PRODUCT TYPICALLY BASED ON SALT OF PEROXYMONOSULFURIC ACID AND SUITABLE FOR MEDICINAL USAGE, AND ASSOCIATED PRODUCT FABRICATION” (LuTran Industries, Inc., priority 2010, published 2012)
